In publication PMC6272230, “Uses of 3-(2-Bromoacetyl)-2H-chromen-2-one in the Synthesis of Heterocyclic Compounds Incorporating Coumarin: Synthesis, Characterization and Cytotoxicity” (Molecules, 2015) one finds IC50 and melting point data, which are given here for eleven compounds.

Molecules are shown by their SMILES.

Series [1] relates to human gastric cancer (NUGC). Briefly: In vitro cytotoxicity against NUGC cells. To be noted: gastric cancer, concentration producing 50% reduction in cell growth, read-out: Cytotoxicity (IC50 in nM) NUGC. The format is cell-based. How it is done: (§1) The heterocyclic compounds, prepared in this study, were evaluated according to standard protocols for their in vitro cytotoxicity against six human cancer cell lines including cells derived from human gastric cancer (NUGC), human colon cancer (DLD1), human liver cancer (HA22T and HEPG2), nasopharyngeal carcinoma (HONE1), human breast cancer (MCF) and normal fibroblast cells (WI38). For comparison purposes, CHS 828, a pyridyl cyanoguanidine, was used as a standard antitumor drug (Figure 2). […] All the synthesized compounds were tested for their cytotoxicity against normal fibroblast cells.
(§2) Fetal bovine serum (FBS) and L-glutamine, were purchased from Gibco Invitrogen Co. (Scotland, UK). RPMI-1640 medium was purchased from Cambrex (East Rutherford, NJ, USA). Dimethyl sulfoxide (DMSO), CHS 828, penicillin, streptomycin and sulforhodamine B (SRB) were purchased from Sigma Chemical Co. (Saint Louis, MO, USA).
(§3) Cell cultures were obtained from the European Collection of Cell Cultures (ECACC, Salisbury, UK) and human gastric cancer (NUGC), human colon cancer (DLD1), human liver cancer (HA22T and HEPG2), human breast cancer (MCF), nasopharyngeal carcinoma (HONE1) and normal fibroblast cells (WI38) were kindly provided by the National Cancer Institute (NCI, Cairo, Egypt). They were grown as a monolayer and routinely maintained in RPMI-1640 medium supplemented with 5% heat inactivated FBS, 2 mM glutamine and antibiotics (penicillin 100 U/mL, streptomycin 100 µg/mL) at 37 °C in a humidified atmosphere containing 5% CO2. Exponentially growing cells were obtained by plating 1.5 × 10^5 cells/mL for the six human cancer cell lines followed by 24 h of incubation. The effect of the vehicle solvent (DMSO) on the growth of these cell lines was evaluated in all the experiments by exposing untreated control cells to the maximum concentration (0.5%) of DMSO used in each assay.

The subject of series [2] is human colon cancer (DLD1). The experiment in a line: In vitro cytotoxicity against DLD1 cells. To be noted: DLD-1, DLDI, colon cancer, concentration producing 50% reduction in cell growth, read-out: Cytotoxicity (IC50 in nM) DLDI. It is filed as cell-based. How it is done:
as §1, §2, §3

Series [3] relates to human liver cancer (HA22T). Briefly: In vitro cytotoxicity against HA22T cells. To be noted: liver cancer, concentration producing 50% reduction in cell growth, read-out: Cytotoxicity (IC50 in nM) HA22T. The format is cell-based. How it is done: as §1, §2, §3
In series [4] the test system is human liver cancer (HEPG2). Briefly: In vitro cytotoxicity against HEPG2 cells. It is filed as cell-based. As to conditions: HEPG2, liver cancer, concentration producing 50% reduction in cell growth, read-out: Cytotoxicity (IC50 in nM) HEPG2. How it is done:
as §1, §2, §3

Series [5] concerns nasopharyngeal carcinoma (HONE1). Briefly: In vitro cytotoxicity against HONE1 cells. The format is cell-based. As to conditions: Homo sapiens; HONE1, nasopharyngeal carcinoma; concentration producing 50% reduction in cell growth; read-out: Cytotoxicity (IC50 in nM) HONE1. The procedure: as §1, §2, §3
Series [6] has as its system human breast cancer (MCF). Briefly: In vitro cytotoxicity against MCF cells. The format is cell-based. To be noted: MCF, breast cancer, concentration producing 50% reduction in cell growth, read-out: Cytotoxicity (IC50 in nM) MCF. How it is done:
as §1, §2, §3

Series [7] is described as follows: In vitro cytotoxicity against normal fibroblast cells WI38. The format is cell-based. As to conditions: human, concentration producing 50% reduction in cell growth. How it is done:
as §1, §2, §3

With `N#CC1=C(N)OC(c2cc3ccccc3oc2=O)=C(C#N)C1c1ccccc1` (stereo not shown) [Compound 10a, 2-Amino-6-(2-oxo-2H-chromen-3-yl)-4-phenyl-4H-pyran-3,5-dicarbonitrile], the melting point was in the range of 173 to 175 °C. For the same compound, the 50% inhibitory concentration (IC50) in series [1] was 537 nM. For the same compound, in series [2], the half-maximal inhibitory concentration (IC50) turned out to be 440 nM. For the same compound, the IC50 in series [3] worked out at 1160 nM. Moreover, the half-maximal inhibitory concentration (IC50) in series [4] was found to be 2770 nM. In addition, in series [5], the IC50 worked out at 6270 nM. In series [6], the half-inhibitory concentration (IC50) came to 2530 nM. For the same compound, the concentration for half-maximal inhibition (IC50) in series [7] was determined as 417 nM.

`COc1ccc(-n2cc(-c3cc4ccccc4oc3=O)sc2=Nc2ccccc2)cc1` [Compound 5c, 3-(3-(4-Methoxyphenyl)-2-(phenylimino)-2,3-dihydrothiazol-5-yl)-2H-chromen-2-one] returned a melting point of 103 to 105 °C. Besides, the IC50 in series [1] turned out to be 1620 nM. Moreover, in series [2], the IC50 came out at 396 nM. For the same compound, the 50% inhibitory concentration (IC50) in series [3] came to 274 nM. Further, in series [4], the IC50 is 2120 nM. In series [5], the 50% inhibitory concentration (IC50) came to 670 nM. In series [6], the 50% inhibitory concentration (IC50) came out at 1180 nM. The same compound came in with a half-maximal inhibitory concentration (IC50) in series [7] of 490 nM.

Compound `O=c1oc2ccccc2cc1-c1cn(-c2ccc(Cl)cc2)c(=Nc2ccccc2)s1` [Compound 5d, 3-(3-(4-Chlorophenyl)-2-(phenylimino)-2,3-dihydrothiazol-5-yl)-2H-chromen-2-one] had a melting point of 123 to 125 °C. For the same compound, the IC50 in series [1] came to 38 nM. For the same compound, in series [2], the IC50 worked out at 163 nM. Also, the concentration for half-maximal inhibition (IC50) in series [3] was 120 nM. Besides, in series [4], the IC50 worked out at 3740 nM. For the same compound, the half-inhibitory concentration (IC50) in series [5] was 441 nM. Further, the 50% inhibitory concentration (IC50) in series [6] is 1260 nM. Also, the concentration for half-maximal inhibition (IC50) in series [7] amounted to 860 nM.

Turning to `N#CC1=C(N)OC(c2cc3ccccc3oc2=O)=C(Br)C1c1ccc(Cl)cc1` (stereo not shown) [Compound 6c, 2-Amino-5-bromo-4-(4-chlorophenyl)-6-(2-oxo-2H-chromen-3-yl)-4H-pyran-3-carbonitrile], the melting point fell in the range of 178 to 180 °C. Moreover, the IC50 in series [1] was 38 nM. Further, the IC50 in series [2] came out at 283 nM. In addition, the half-maximal inhibitory concentration (IC50) in series [3] was determined as 2270 nM. For the same compound, the IC50 in series [4] was found to be 683 nM. In series [5], the 50% inhibitory concentration (IC50) was 1670 nM. For the same compound, the half-maximal inhibitory concentration (IC50) in series [6] turned out to be 89 nM. In series [7], this compound came in with a half-inhibitory concentration (IC50) of 480 nM.

Consider `N#Cc1c(N)sc(Br)c1-c1cc2ccccc2oc1=O` [Compound 4a, 2-Amino-5-bromo-4-(2-oxo-2H-chromen-3-yl)thiophene-3-carbonitrile], for which the melting point is 180 to 182 °C. Moreover, in series [1], the half-inhibitory concentration (IC50) came out at 32 nM. Moreover, the half-maximal inhibitory concentration (IC50) in series [2] is 50 nM. In series [3], the IC50 worked out at 27 nM. In addition, in series [4], the half-inhibitory concentration (IC50) turned out to be 221 nM. Further, the half-inhibitory concentration (IC50) in series [5] turned out to be 228 nM. Besides, the concentration for half-maximal inhibition (IC50) in series [6] is 2060 nM. In addition, in series [7], the 50% inhibitory concentration (IC50) was determined as 780 nM.

In turn, `COc1ccc(C2C(Br)=C(c3cc4ccccc4oc3=O)OC(N)=C2C#N)cc1` (stereo not shown) [Compound 6b, 2-Amino-5-bromo-4-(4-methoxyphenyl)-6-(2-oxo-2H-chromen-3-yl)-4H-pyran-3-carbonitrile] came in with a melting point of 193 to 195 °C. The IC50 in series [1] was 3320 nM. Besides, the IC50 in series [2] is 2670 nM. In addition, the IC50 in series [3] came out at 2260 nM. Moreover, in series [4], the IC50 was 169 nM. Besides, the IC50 in series [5] amounted to 2850 nM. The half-inhibitory concentration (IC50) in series [6] came to 2850 nM. In series [7], this compound returned a half-inhibitory concentration (IC50) of 280 nM.

In turn, `N#CC1=C(N)NC(c2cc3ccccc3oc2=O)=C(C#N)C1c1ccco1` (stereo not shown) [Compound 11d, 2-Amino-4-(furan-2-yl)-6-(2-oxo-2H-chromen-3-yl)-1,4-dihydropyridine-3,5-dicarbonitrile] showed a melting point of 168 to 170 °C. For the same compound, the IC50 in series [1] was 649 nM. Moreover, in series [2], the half-inhibitory concentration (IC50) was 3460 nM. Besides, the half-maximal inhibitory concentration (IC50) in series [3] worked out at 137 nM. Further, in series [4], the IC50 is 3120 nM. Besides, the half-inhibitory concentration (IC50) in series [5] was found to be 1190 nM. Also, in series [6], the IC50 amounted to 40 nM. The compound further returned a 50% inhibitory concentration (IC50) in series [7] of 652 nM.

As for `COc1ccc(C2C(Br)=C(c3cc4ccccc4oc3=O)NC(N)=C2C#N)cc1` (stereo not shown) [Compound 7b, 2-Amino-5-bromo-4-(4-methoxyphenyl)-6-(2-oxo-2H-chromen-3-yl)-1,4-dihydropyridine-3-carbonitrile], the melting point was in the range of 164 to 166 °C. In addition, the concentration for half-maximal inhibition (IC50) in series [1] came to 782 nM. The IC50 in series [2] was determined as 532 nM. Further, the half-maximal inhibitory concentration (IC50) in series [3] is 783 nM. Further, the IC50 in series [4] is 738 nM. Moreover, the IC50 in series [5] was found to be 180 nM. Moreover, in series [6], the IC50 worked out at 409 nM. The midpoint of inhibition in series [7], the IC50, lay at 160 nM.

As for `O=c1oc2ccccc2cc1-c1cn(-c2ccccc2)c(=Nc2ccccc2)s1` [Compound 5a, 3-(3-Phenyl-2-(phenylimino)-2,3-dihydrothiazol-5-yl)-2H-chromen-2-one], the melting point lay within 158 to 160 °C. In addition, the IC50 in series [1] amounted to 228 nM. For the same compound, the concentration for half-maximal inhibition (IC50) in series [2] was found to be 569 nM. The half-inhibitory concentration (IC50) in series [3] came to 213 nM. Also, the half-maximal inhibitory concentration (IC50) in series [4] worked out at 1110 nM. For the same compound, the IC50 in series [5] is 2050 nM. Also, the IC50 in series [6] came out at 2010 nM. The compound further yielded a half-maximal inhibitory concentration (IC50) in series [7] of 632 nM.

As to `N#CC1=C(N)NC(c2cc3ccccc3oc2=O)=C(Br)C1c1ccccc1` (stereo not shown) [Compound 7a, 2-Amino-5-bromo-6-(2-oxo-2H-chromen-3-yl)-4-phenyl-1,4-dihydropyridine-3-carbonitrile], the melting point was 171 to 173 °C. Further, the 50% inhibitory concentration (IC50) in series [1] came out at 38 nM. In series [2], the IC50 was found to be 893 nM. In series [3], the IC50 is 166 nM. Moreover, the IC50 in series [4] was determined as 399 nM. Further, the concentration for half-maximal inhibition (IC50) in series [5] is 423 nM. The IC50 in series [6] stood at 463 nM. The compound further yielded an IC50 in series [7] of 379 nM.

`N#CC1=C(N)NC(c2cc3ccccc3oc2=O)=C(C#N)C1c1ccccc1` (stereo not shown) [Compound 11a, 2-Amino-6-(2-oxo-2H-chromen-3-yl)-4-phenyl-1,4-dihydropyridine-3,5-dicarbonitrile]: the melting point fell in the range of 133 to 135 °C. Moreover, the IC50 in series [1] amounted to 680 nM. In series [2], the half-maximal inhibitory concentration (IC50) turned out to be 222 nM. The IC50 in series [3] turned out to be 314 nM. The concentration for half-maximal inhibition (IC50) in series [4] is 3350 nM. Moreover, the IC50 in series [5] is 2320 nM. The IC50 in series [6] was found to be 4940 nM. The same compound yielded a half-maximal inhibitory concentration (IC50) in series [7] of 128 nM.

As usually defined, the IC50 is the midpoint of a concentration-inhibition curve. One may read the melting point as the temperature of the solid-liquid transition.
